According to US10314820B2, “Imidazole-based heterocyclic compounds” (priority 2014, dated 2019):

Assays:
[1] = tested on: Enterococcus faecium (AGR15, ATCCBAA-2127); test: Broth microdilution MIC assay, Enterococcus faecium; assay type: cell-based; settings: Table BB; MIC score
[2] = tested on: vancomycin-resistant Staphylococcus aureus (from MRSA, COL); test: microbe, parasite or virus in culture; assay type: cell-based; settings: Table BB; MIC score; vancomycin-resistant MRSA
[3] = tested on: linezolid-resistant Staphylococcus aureus (from MRSA, COL); test: microbe, parasite or virus in culture; assay type: cell-based; settings: Table BB; MIC score; linezolid-resistant MRSA
[4] = tested on: Human hepatocytes (HepaRG cells); test: Human cytotoxicity assay in vitro (CellTiter-Glo), hepatocytes; assay type: cell-based; settings: hepatocyte cytotoxicity score; 24 h exposure
[5] = tested on: Human keratinocytes (HaCaT cells); test: Human cytotoxicity assay in vitro (CellTiter-Glo), keratinocytes; assay type: cell-based; settings: keratinocyte cytotoxicity score; 24 h exposure
[6] = tested on: moenomycin-resistant Staphylococcus aureus (from MRSA, COL); settings: Table BB, MIC score
[7] = tested on: Streptococcus pneumoniae (Chester, ATCC49619); test: Broth microdilution MIC assay, Streptococcus pneumoniae; assay type: cell-based; settings: Table AA; MIC score
[8] = tested on: Staphylococcus aureus MSSA (Newman); test: Broth microdilution MIC assay, MSSA; assay type: cell-based; settings: Table AA; MIC score
[9] = tested on: Staphylococcus aureus MRSA (COL); assay type: cell-based; settings: Table AA; MIC score
[10] = tested on: Escherichia coli TolC mutant strain ΔtolC; assay type: cell-based; settings: Table BB; MIC score
[11] = tested on: MRSA (COL) resistant to triclosan; test: microbe, parasite or virus in culture; settings: Staphylococcus aureus, read-out: MIC values of resistant strains
[12] = tested on: platensimycin-resistant Staphylococcus aureus (from MRSA, COL); test: microbe, parasite or virus in culture; assay type: cell-based; settings: read-out: MIC for the resistant strain

SMILES | antibacterial activity EFm [1] | antibacterial activity MRSA strains with additional resistance to V [2] | antibacterial activity MRSA strains with additional resistance to L [3] | cytotoxicity cell line H [4] | cytotoxicity cell line K [5] | antibacterial activity MRSA strains with additional resistance to M [6] | further results
Cc1[nH]c(-c2ccc(-c3ccc(C(F)(F)F)c(Cl)c3)o2)nc1-c1ccc(F)cc1 [Compound 49] | 1 (the compound has an MIC100 of 20-50 μg/ml or an MIC50 of <10 μg/ml) | 3 (the compound has an MIC100 of 3-10 μg/ml) | 2 (the compound has an MIC100 of 11-20 μg/ml) | 3 | 2 (compounds causing>50% inhibition of cell viability at 25 μM) | 3 (the compound has an MIC100 of 3-10 μg/ml) | –
Cc1ccccc1-c1c[nH]c(-c2ccc(-c3ccccc3OC(F)(F)F)o2)n1 [Compound 66] | – | 3 (the compound has an MIC100 of 3-10 μg/ml) | 4 (the compound has an MIC of 1 μg/ml to 3 μg/ml for preventing bacterial growth 100% (MIC100)) | 3 | 1 (compounds causing less than 50% inhibition of cell viability at 50 μM) | 3 (the compound has an MIC100 of 3-10 μg/ml) | –
Cc1nc(-c2ccc(-c3ccc(Cl)c(OC(F)(F)F)c3)o2)[nH]c1-c1ccc(Cl)cc1 [Compound 44] | 1 (the compound has an MIC100 of 20-50 μg/ml or an MIC50 of <10 μg/ml) | – | – | 2 | – | – | –
CN(C)Cc1[nH]c(-c2ccc(-c3ccccc3C(F)(F)F)o2)nc1-c1ccccc1 [Compound 70] | 2 (the compound has an MIC100 of 11-20 μg/ml) | 1 (the compound has an MIC100 of 20-50 μg/ml or an MIC50 of <10 μg/ml) | 1 (the compound has an MIC100 of 20-50 μg/ml or an MIC50 of <10 μg/ml) | 3 | 2 (compounds causing>50% inhibition of cell viability at 25 μM) | 1 (the compound has an MIC100 of 20-50 μg/ml or an MIC50 of <10 μg/ml) | Antibacterial activity Streptococcus pneumoniae [7]: 3 (the compound has an MIC100 of 2-5 μg/ml); Antibacterial activity Staphylococcus aureus (MSSA) [8]: 1 (the compound has an MIC100 of 20-50 μg/ml or an MIC50 of <10 μg/ml); Antibacterial activity Staphylococcus aureus (MRSA) [9]: 1 (the compound has an MIC100 of 20-50 μg/ml or an MIC50 of <10 μg/ml); antibacterial activity EC Δ [10]: 3 (the compound has an MIC100 of 3-10 μg/ml)
Cc1[nH]c(-c2ccc(-c3ccccc3OC(F)(F)F)o2)nc1-c1ccc(F)cc1 [Compound 23, 4-(4-Fluoro-phenyl)-5-methyl-2-[5-(2-trifluoromethoxy-phenyl)-furan-2-yl]-1H-imidazole] | 1 (the compound has an MIC100 of 20-50 μg/ml or an MIC50 of <10 μg/ml) | – | – | 3 | 2 (compounds causing>50% inhibition of cell viability at 25 μM) | – | –
Cc1[nH]c(-c2ccc(-c3ccc(OC(F)(F)F)c(Cl)c3)o2)nc1-c1ccc(Cl)cc1 [Compound 50] | – | – | – | 1 (compounds not causing a loss of viability at concentrations between 25 and 50 μM) | 1 (compounds causing less than 50% inhibition of cell viability at 50 μM) | – | Antibacterial activity Streptococcus pneumoniae [7]: 3 (the compound has an MIC100 of 2-5 μg/ml); Antibacterial activity Staphylococcus aureus (MSSA) [8]: 3 (the compound has an MIC100 of 3-10 μg/ml); Antibacterial activity Staphylococcus aureus (MRSA) [9]: 2 (the compound has an MIC100 of 11-20 μg/ml)
Fc1ccc(-c2ccc(-c3nc4ccccc4[nH]3)o2)c(F)c1 [Compound 122] | – | – | – | – | – | – | Antibacterial activity Streptococcus pneumoniae [7]: inactive; Antibacterial activity Staphylococcus aureus (MRSA) [9]: inactive
Cc1[nH]c(-c2ccc(-c3ccccc3OC(F)(F)F)o2)nc1-c1ccc(Cl)cc1 [Compound 24] | – | 4 (the compound has an MIC of 1 μg/ml to 3 μg/ml for preventing bacterial growth 100% (MIC100)) | 3 (the compound has an MIC100 of 3-10 μg/ml) | 2 | 2 (compounds causing>50% inhibition of cell viability at 25 μM) | 3 (the compound has an MIC100 of 3-10 μg/ml) | –
Fc1ccc(-c2ccc(-c3nc4ccccc4[nH]3)o2)cc1 [Compound 121] | – | – | – | – | – | – | Antibacterial activity Streptococcus pneumoniae [7]: inactive; Antibacterial activity Staphylococcus aureus (MRSA) [9]: inactive
Cc1[nH]c(-c2ccc(-c3ccc(C(F)(F)F)cc3)o2)nc1-c1ccc(Cl)cc1 [Compound 47] | 1 (the compound has an MIC100 of 20-50 μg/ml or an MIC50 of <10 μg/ml) | – | – | 1 (compounds not causing a loss of viability at concentrations between 25 and 50 μM) | 2 (compounds causing>50% inhibition of cell viability at 25 μM) | – | –
Cc1nc(-c2ccc(-c3ccccc3OC(F)(F)F)o2)[nH]c1-c1ccccc1Cl [Compound 19] | – | 1 (the compound has an MIC100 of 20-50 μg/ml or an MIC50 of <10 μg/ml) | 3 (the compound has an MIC100 of 3-10 μg/ml) | 3 | 0 (compounds not causing loss of cell viability at concentrations of 50 μM or higher) | – | –
Cc1[nH]c(-c2ccc(-c3ccc(Cl)c(C(F)(F)F)c3)o2)nc1-c1ccc(F)cc1 [Compound 42] | 1 (the compound has an MIC100 of 20-50 μg/ml or an MIC50 of <10 μg/ml) | 4 (the compound has an MIC of 1 μg/ml to 3 μg/ml for preventing bacterial growth 100% (MIC100)) | 4 (the compound has an MIC of 1 μg/ml to 3 μg/ml for preventing bacterial growth 100% (MIC100)) | 1 (compounds not causing a loss of viability at concentrations between 25 and 50 μM) | 3 (compounds causing more than 50% inhibition of cell viability at 10 μM) | 4 (the compound has an MIC of 1 μg/ml to 3 μg/ml for preventing bacterial growth 100% (MIC100)) | –
Cc1[nH]c(-c2ccc(-c3ccccc3F)s2)nc1-c1ccccc1 [Compound 15] | – | – | – | 1 (compounds not causing a loss of viability at concentrations between 25 and 50 μM) | 1 (compounds causing less than 50% inhibition of cell viability at 50 μM) | – | antibacterial activity EC Δ [10]: 1 (the compound has an MIC100 of 20-50 μg/ml or an MIC50 of <10 μg/ml)
Oc1cc(Cl)ccc1Oc1ccc(Cl)cc1Cl [triclosan] | – | – | – | – | – | – | MIC [11]: > 20 µg/mL
FC(F)(F)Oc1ccccc1-c1ccc(-c2nc(Cl)c(-c3ccccc3)[nH]2)o1 [Compound 64] | – | 4 (the compound has an MIC of 1 μg/ml to 3 μg/ml for preventing bacterial growth 100% (MIC100)) | – | 3 | 3 (compounds causing more than 50% inhibition of cell viability at 10 μM) | 4 (the compound has an MIC of 1 μg/ml to 3 μg/ml for preventing bacterial growth 100% (MIC100)) | –
CC12C[C@@]34C=CC(=O)[C@@](C)(CCC(=O)Nc5c(O)ccc(C(=O)O)c5O)C3[C@H](CC1C4)O2 (some centres unmarked) [platensimycin] | – | – | – | – | – | – | MIC [12]: > 10 µg/mL
Cc1ccccc1-c1cnc(-c2ccc(-c3ccccc3C(F)(F)F)o2)[nH]1 [Compound 69] | – | – | – | 2 | 1 (compounds causing less than 50% inhibition of cell viability at 50 μM) | – | antibacterial activity EC Δ [10]: 1 (the compound has an MIC100 of 20-50 μg/ml or an MIC50 of <10 μg/ml)
